{
  "source": "patent US7652038B2",
  "about": "“Methods of reducing angiogenesis” (The Board of Trustees of the Leland Stanford Jr. University, priority 2002, dated 2010)",
  "key": {"C57BL/6J mice [1]": {"tested_on": "C57BL/6J mice", "assay": "Disc angiogenesis system", "assay_type": "in vivo", "conditions": "for crosssectional area of the disc covered with new vessels (neovascularization of the disc): systemic treatment via osmotic minipumps, median, control 54.9%", "experimental": "Disc Angiogenesis System. A disc of polyvinyl alcohol sponge (Rippey, El Dorado Hills, Calif.), covered with nitrocellulose cell-impermeable filters (Millipore, Burlington, Mass.), allows capillaries to grow only through the rim of the disc. The randomized treatment for the 2-week study period was delivered via osmotic minipumps (0.25 μl/hr; Durect, Cupertino, Calif.). Those discs were subcutaneously implanted in the back of 10-week old C57BL/6J mice or in some experiments in the back of α7-nAChR-deficient (B6.129S7-Chrna7^trn1Bay) mice (n=6 per group; Jackson, Bar Harbor, Me.). Two weeks later, mice were anesthetized and infused with space-filling fluorescent microspheres (0.2 μm, Molecular Probes, Eugene, Oreg.) through the left ventricle of the heart. Both the area of the disc covered with perfused vessels and the vessel density were quantified. Heeschen et al. (2001) Nat Med 7:833-837; and Jang et al. (2000) Circulation 102:1414-1419 (3, 10) The α7-nAChR in growing vessels were identified by immunohistochemistry (Santa Cruz Biotechnology, Santa Cruz, Calif.). To verify the specificity of the staining, discs explanted from homozygous α7-nAChR^−/− mice were used as a negative control.\nTo determine if the nAChR are involved in the native angiogenesic response in vivo, we used the disc angiogenesis system. In the control group, 54.9% (95% CI 46.1-63.6) of the crosssectional area of the disc was covered with new vessels when the disc was removed three weeks after subcutaneous implantation. FIG. 1."}, "HMVECs and HUVECs": {"tested_on": "HMVECs and HUVECs", "assay": "In vitro Matrigel assay (capillary network / tube formation)", "assay_type": "cell-based, human", "experimental": "In Vitro Matrigel Assay. Human umbilical vein endothelial cells (HUVEC) and human microvascular endothelial cells (HMVEC; up to 5th passage; Bio Whittaker, Walkersville, Md.) were grown in EGM-MV supplemented with 5% FBS, 0.5 ml hEGF, 0.2 ml hydrocortisone, 2.0 ml BBE, and 0.5 ml GA-1000 (Bio Whittaker). Four-well chamber slides were coated with growth factor enhanced Matrigel (Becton Dickinson, Bedford, Mass.) and equilibrated with basal medium. Kureishi et al. (2000) Nat Med 6:1004-1010. Cells were seeded on top of the gel at a density of 10^3 cells/well in fresh basal medium containing 5% FBS. After two hours, increasing concentrations of mecamylamine (10^−12 to 10^−4 M; Sigma, St. Louis, Mont.) or vehicle were added to the medium. Development of tube formation in the center of each well was investigated at 24, 48, and 72 hours. We studied critical steps in angiogenesis, such as migration and differentiation, using an in vitro model of angiogenesis with ECs forming a network of capillary-like structures. After seeding the cells on growth factor-enriched matrigel, HMVECs and HUVECs, respectively, manifested tube formation within 48 hours in response to control medium."}, "C57BL/6J mice [2]": {"tested_on": "C57BL/6J mice", "assay": "Murine model of hind limb ischemia", "assay_type": "in vivo", "conditions": "for median diameter of collateral vessels / number of collateral vessels: ischemic limb; for median diameter of collateral vessels: control 0.12 mm; for number of collateral vessels: control 7.5", "experimental": "Murine Model of Hind Limb Ischemia. In 10-week old C57BL/6J mice, the distal end of the external iliac artery and the deep and superficial femoral artery were ligated (n=8 animals per group). Mecamylamine was administered for three weeks by daily intramuscular injection. Serum VEGF levels were determined with a mouse VEGF ELISA kit (R&D System, Minneapolis, Minn.). Capillary density was determined in the adductor and semimembranous muscles. In 10 μm cryostat sections, cut transverse to the mid-belly of the muscle, capillaries were identified by monoclonal antibodies against CD31 (BD PharMingen, San Diego, Calif.) and myocytes were counterstained with eosin (Sigma). Capillary density for each section was determined in ten randomly selected fields and is expressed as a ratio of capillaries to myocytes.\nTo determine if nAChR play an important role in the setting of angiogenesis in response to ischemia, we employed the murine model of hind limb ischemia. After unilateral ligation of the superficial and deep femoral artery, we administered mecamylamine or vehicle by intramuscular injections into the ischemic hind limb on a daily basis for a period of three weeks. Animals (each group n=8) received 0, 0.05, or 0.5 μg/kg of mecamylamine. […] We achieved similar results when we administered mecamylamine systemically via osmotic minipumps (5.0 μg/kg; 0.24 (95% CI 0.19-0.28); P<0.001).\nAccordingly, we identified collaterals by double staining for CD31 (ECs) and α-actin (SMCs) using confocal microscopy. The number of collaterals was quantified on cross-sections by identifying vascular lumen lined by CD31-positive endothelium, that were coated by an actin-positive vascular smooth muscle wall, with vessel diameters of at least 0.02 mm."}, "CD34+/Flk-1+ cells": {"tested_on": "CD34+/Flk-1+ cells", "assay": "FACS of endothelial progenitor cells in hind limb ischemia model", "assay_type": "in vivo, mice", "conditions": "systemic administration", "experimental": "FACS. Fluorescence-activated cell sorting was used to identify the cellular population mobilized by ischemia and ischemia plus mecamylamine, respectively. At each time point (baseline, 3, 7, 14 days), blood was obtained from the right atrium. Bone marrow was isolated from bilateral femurs and tibias of each animal and incubated in HBSS (1% FCS) on ice. Peripheral blood and bone marrow cells were incubated with fluorescent-labeled antibodies and analyzed with a FACS-Vantage flow cytometer (Becton Dickinson, Franklin Lakes, N.J.). FITC-conjugated antibody against mouse CD34 and PE-conjugated antibody against mouse Flk-1 (BD PharMingen, San Diego, Calif.) were used as endothelial lineage markers. The analysis of CD34+ and Flk-1+ cells was performed after gating for monocyte size. Biotinylated antibodies against MAC-1 (BD PharMingen) conjugated to Avidin-Texas Red (BD PharMingen) were used as a monocyte/macrophage lineage marker after gating for monocyte cell size with the exclusion of granulocytes that were marked by Ly-6G GR-1 against mouse conjugated to APC (BD PharMingen). […] Data were analyzed using FloJo software (Becton Dickinson).\nTable 1 presents the data, expressed as percentage of endothelial progenitor cells in bone marrow (BM) and peripheral blood (PB) before and after ligation of the femoral artery in the murine model of hind limb ischemia."}, "[3]": {"tested_on": "Lewis lung carcinoma cells", "assay": "Lewis lung tumor model, subcutaneous", "assay_type": "in vivo, mice", "experimental": "(§1) Lewis Lung Tumor Model. A total of 10^6 Lewis lung carcinoma cells (ATCC, Manassas, Va.) were cultured in RPMI 1640 supplemented with 10% FBS. Cancer cells were subcutaneously injected into each flank or orthotopically introduced into the lung parenchyma via a limited skin incision without thoracotomy of 10-week old C57BL/6J wild type mice. Animals received mecamylamine (3 mg/kg) or vehicle via osmotic mini pumps. Mice injected subcutaneously with tumor cells were checked on a daily basis for the presence of a palpable tumor and tumor growth was measured with a gauge. Tumor size was calculated as the product of length×width×0.5 cm^3. When mice in any group were bearing tumors>1.5 cm^3, the experiment was stopped and all animals sacrificed for histological evaluation. Tumor vessels were identified by infusion of space-filling fluorescent microspheres (0.2 μm; Molecular Probes) via the left ventricle of the heart.\n(§2) The previous studies indicate that nAChR play an important role in angiogenesis in a broad spectrum of experimental conditions. To determine if mecamylamine could influence tumor angiogenesis, we used the in vivo Lewis lung cancer model. […] This late decrease in tumor growth in the mecamylamine group corresponded with a reduced vascularization of the tumor tissue. […] In another experiment, we orthotopically implanted Lewis lung cancer cells into the lung parenchyma. Larger tumors in the control group required discontinuation of the experiment after 17 days (tumor volume of 0.62 cm^3 (95% CI 0.37-0.85) versus 0.45 cm^3 (95% CI 0.28-0.66); P<0.001)."}, "[4]": {"tested_on": "Lewis lung carcinoma cells", "assay": "Lewis lung tumor model, orthotopic implantation into lung parenchyma", "assay_type": "in vivo, mice", "experimental": "as §1, §2"}, "Lewis lung cancer cells": {"tested_on": "Lewis lung cancer cells", "assay": "Cell culture of Lewis lung cancer cells: proliferation and apoptosis during hypoxia", "assay_type": "cell-based", "excerpt": "In subsequent cell culture experiments, we investigated whether this reduced tumor growth may also be related to a direct anti-proliferative effect of mecamylamine on the cancer cells. […] We also investigated the effects of increasing mecamylamine concentrations on the percentage of cells undergoing apoptosis during hypoxia using flow cytometry."}},
  "data": [
    {"molecule": "C[N+](C)(C)CCCCCC[N+](C)(C)C", "note": "[hexamethonium]", "values": [
      {"measurement": "crosssectional area of the disc covered with new vessels (neovascularization of the disc)", "setting": "C57BL/6J mice [1]", "result": 11.5, "unit": "%"}
    ]},
    {"molecule": "CNC1(C)C2CCC(C2)C1(C)C", "note": "(stereo not shown) [mecamylamine]", "values": [
      {"measurement": "reversibility of effect on network formation", "setting": "HMVECs and HUVECs; 10^−6 M, treatment stopped after 36 hours, network-like structures at 72 hours", "result": "reversible"},
      {"measurement": "network formation (tube formation)", "setting": "HMVECs and HUVECs; medium supplemented with 10^−4 to 10^−12 M, growth factor-enriched matrigel", "result": "network formation was inhibited"},
      {"measurement": "angiogenesis in vivo (FIG. 1)", "setting": "C57BL/6J mice [1]; disc angiogenesis system", "result": "inhibits angiogenesis in vivo"},
      {"measurement": "crosssectional area of the disc covered with new vessels (neovascularization of the disc)", "setting": "C57BL/6J mice [1]", "result": 14.3, "unit": "%"},
      {"measurement": "capillary density (angiogenic response)", "setting": "C57BL/6J mice [2]; 0.5 μg/kg daily intramuscular injection into ischemic hind limb, 3 weeks, control 0.45", "result": 0.26, "unit": "capillaries/myocyte"},
      {"measurement": "median diameter of collateral vessels", "setting": "C57BL/6J mice [2]; high dose", "result": 0.07, "unit": "mm"},
      {"measurement": "number of collateral vessels", "setting": "C57BL/6J mice [2]; high dose", "result": 6.2},
      {"measurement": "median diameter of collateral vessels", "setting": "C57BL/6J mice [2]; low dose", "result": 0.09, "unit": "mm"},
      {"measurement": "number of collateral vessels", "setting": "C57BL/6J mice [2]; low dose", "result": 7.1},
      {"measurement": "capillary density compared to control (FIG. 3)", "setting": "C57BL/6J mice [2]; murine model of hind limb ischemia", "result": "decreased capillary density in a dose-dependent fashion"},
      {"measurement": "capillary density (angiogenic response)", "setting": "C57BL/6J mice [2]; systemically via osmotic minipumps, 5.0 μg/kg", "result": 0.24, "unit": "capillaries/myocyte"},
      {"measurement": "number of CD34+/Flk-1+ cells in the bone marrow", "setting": "CD34+/Flk-1+ cells", "result": "reduced the number of CD34^+/Flk-1^+ cells in the bone marrow"},
      {"measurement": "tumor growth (tumor size)", "setting": "[3]; 21-day follow-up, control 1.21", "result": 0.85, "unit": "cm^3"},
      {"measurement": "advanced tumor growth (FIG. 5)", "setting": "[3]; Lewis Lung tumor model", "result": "significantly less tumor growth"},
      {"measurement": "capillary density of tumor tissue", "setting": "[3]; subcutaneous tumor, control 0.82", "result": 0.56, "unit": "capillaries/mm^2"},
      {"measurement": "systemic levels of VEGF", "setting": "[4]; Lewis lung cancer model, control 152.2", "result": 78.7, "unit": "pg/mL"},
      {"measurement": "tumor volume", "setting": "[4]; orthotopic, after 17 days, control 0.62", "result": 0.45, "unit": "cm^3"},
      {"measurement": "tumor vascularization", "setting": "[4]; orthotopic, control 1.56", "result": 0.98, "unit": "capillaries/mm^2"},
      {"measurement": "cells positive for Annexin V", "setting": "Lewis lung cancer cells; 10^−6 M during hypoxia, control 13%", "result": 12, "unit": "%"},
      {"measurement": "percentage of cells undergoing apoptosis during hypoxia", "setting": "Lewis lung cancer cells; increasing concentrations, flow cytometry, versus control group", "result": "no difference was observed"},
      {"measurement": "number of Lewis lung cancer cells (direct anti-proliferative effect)", "setting": "Lewis lung cancer cells; up to 48 hours of treatment", "result": "did not observe a significant change"}
    ]}
  ]
}
